Patent publication US10179770B2, “Quinolines derivatives as novel anticancer agents” (GENOSCIENCE PHARMA, priority 2013, dated 2019)

Tests used:
HCT-116 [1] = assay: Cell proliferation assay at 10 μM; type: cell-based; settings: Homo sapiens, HCT-116, 72 h, read-out: Cell viability observed at 10 μM
In short: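 A375 and HCT-116 cells grown in DMEM with 10% FBS, seeded overnight, then exposed to compound at 10 μM for 72 h at 37 °C, 5% CO2 against vehicle control. Outgrowth read by MTS (CellTiter 96 Aqueous One) absorbance; each point the mean of two replicates.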

MOLM-14 [2] = assay: Cell proliferation assay at 10 μM; type: cell-based, human; settings: Homo sapiens, MOLM-14, 72 h, read-out: Cell viability observed at 10 μM
In short: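 MOLM-14 suspension cells (30,000/well, MEM alpha with 10% FBS) treated with compound at 10 μM, constant vehicle percentage, for 72 h at 37° C. Outgrowth measured by sulforhodamine B absorbance; each point is mean of two replicates.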

A-375 = assay: EC50 determination in cancer cell lines; type: cell-based, human; settings: Homo sapiens, A-375, 72 h
Procedure: (§1) Compounds were added at different concentrations to each well, and cell cultures were incubated for 72 h. Vehicle (DMSO or H2O) was used as a control, and all compounds were tested in a constant percentage of vehicle. Cell outgrowth was measured using for adherent cells CellTiter […] Aqueous One Solution Cell Proliferation Assay (Promega) and for cell suspension, Sulforhodamine B colorimetric assay as described in Vichai et al. (Vichai, V. and Kirtikara, K. Nat. Protoc. 2006 (1) 1112-1116). Absorbance was measured using an Infinite F200 Pro or Sunrise TECAN plate reader.
(§2) The human melanoma cell line A375, colorectal carcinoma cell line HCT-116, hepatocellular carcinoma cell line HepG2 were cultured in Dulbecco's modified Eagle's medium supplemented with 10% fetal bovine serum and 1% Penicillin-Streptomycin. The human melanoma cell lines SK-MEL-28 and SK-MEL-5 were cultured in Minimum Essential Medium. The colorectal carcinoma cell lines HT-29 and Colo205 were respectively cultured in Mc Coy's and RPMI media. The human leukemia cell lines MV4-11 and KG-1 were cultured in Iscove's Modified Dulbecco's Media. The human leukemia cell line MOLM-14 was cultured in Minimum Essential Medium Alpha Medium supplemented with 10% Fetal Bovine Serum and 1% Penicillin-Streptomycin All culture media were supplemented with 10% fetal bovine serum and 1% Penicillin-Streptomycin except for MV4-11 cell line 20% fetal bovine serum and 1% Penicillin-Streptomycin. All the cell lines were maintained at 37° C. with 5% C02.
(§3) Briefly, adherent cells, A375, HCT-116, HepG2, SK-MEL-28, SK-MEL-5, HT-29 and Colo205 cells were respectively plated at 800, 5,000, 7,000, 2,500, 3,000-5,000, 5,000 or 5,000 cells per well onto 96-well plates in 90 μL of media per well and were allowed to grow overnight before the assay. For MV4-11 and KG-1 cells that grow in suspension, 40,000-60,000 cells were plated onto 96-well plates immediately before the assay. MOLM-14 cell line, that grow in suspension, 30,000 cells were plated onto 96-well plates immediately before the assay.
(§4) The cell growth measure was the same as described in example 51.
(§5) The experimental data are analyzed using a computer program, Graphpad Prism (GraphPad Software, Inc. La Jolla, Calif.) and EC50 values were determined as the dose of compound required to reduce absorbance values to 50% of the signal obtained for vehicle treated cell cultures and were a mean of at least two independent experiments except for EC50 values with (*) where […].

KG-1 = assay: EC50 determination in cancer cell lines; type: cell-based; settings: Homo sapiens, 72 h
Procedure: as §1, §2, §3, §4, §5

MOLM-14 [3] = assay: EC50 determination in cancer cell lines; type: cell-based; settings: Homo sapiens, 72 h
Procedure: as §1, §2, §3, §4, §5

MV4-11 = assay: EC50 determination in cancer cell lines; type: cell-based; settings: Homo sapiens, 72 h
Procedure: as §1, §2, §3, §4, §5

SK-MEL-28 = assay: EC50 determination in cancer cell lines; type: cell-based; settings: Homo sapiens, 72 h
Procedure: as §1, §2, §3, §4, §5

SK-MEL-5 = assay: EC50 determination in cancer cell lines; type: cell-based; settings: Homo sapiens, 72 h
Procedure: as §1, §2, §3, §4, §5

[4] = test system: PBMC Healthy voluntary donor; assay: Cell growth inhibition assay, PBMC of healthy donors; type: cell-based, human; settings: Homo sapiens, PBMC
Procedure: Each compound was added at different concentrations (combinations of six concentrations) to each well, and cell cultures were incubated for 48 h. Vehicle (H2O) was used as a control, and all compounds were tested in a constant percentage of vehicle. Cell outgrowth was measured using the CellTiter-Glo luminescent cell viability assay as described by the manufacturer (Promega, Ref G7571 Madison, Wis., USA) using a Centro (Berthold, France) plate reader. In each experiment, each point represents the average of triplicates in cell culture. The experimental data are analyzed using a computer program, Graphpad Prism (GraphPad Software, Inc.

HepG2 = assay: EC50 determination in cancer cell lines; type: cell-based, human; settings: Homo sapiens, HepG2, 72 h
Procedure: as §1, §2, §3, §4, §5

HCT-116 [5] = assay: EC50 determination in cancer cell lines; type: cell-based, human; settings: Homo sapiens, HCT-116, 72 h
Procedure: as §1, §2
Briefly, adherent cells, A375, HCT-116, HepG2, SK-MEL-28, SK-MEL-5, HT-29 and Colo205 cells were respectively plated at 800, 5,000, 7,000, 2,500, 3,000-5,000, 5,000 or 5,000 cells per well onto 96-well plates in 90 μL of media per well and were allowed to grow overnight before the assay. For MV4-11 and KG-1 cells that grow in suspension, 40,000-60,000 cells were plated onto 96-well plates immediately before the assay. MOLM-14 cell line, that grow in suspension, 30,000 cells were plated onto 96-well plates immediately before the assay. […]
as §5

HT-29 = assay: EC50 determination in cancer cell lines; type: cell-based; settings: Homo sapiens, 72 h, * n>2
Procedure: as §1, §2, §3, §4, §5

| Compound | viability at 10 µM (HCT-116 [1]) [%] | viability at 10 µM (MOLM-14 [2]) [%] | EC50 (A-375) [µM] | EC50 (KG-1) [µM] | EC50 (MOLM-14 [3]) [µM] | EC50 (MV4-11) [µM] | EC50 (SK-MEL-28) [µM] | EC50 (SK-MEL-5) [µM] | EC50 ([4]; PBMC Healthy voluntary donor 1) [µM] | EC50 ([4]; PBMC Healthy voluntary donor 2) [µM] | EC50 (HepG2) [µM] | EC50 (HCT-116 [5]) [µM] | EC50 (HT-29) [µM] |
| --- | --- | --- | --- | --- | --- | --- | --- | --- | --- | --- | --- | --- | --- |
| CC(C)(C)NC1CCN(c2cc(-c3ccc(Cl)cc3)nc3ccccc23)CC1.Cl.Cl [XII-4, 2-(4-chloro-phenyl)-4-(4-N-tert-butylamino-piperidin-1-yl)quinoline dihydrochloride] | < 20 | < 20 | 5 | 4 | 3 | 2 | 3 | 5 | 43 | 15 |  |  |  |
| CCN(CC)C1CCN(C(C)c2cc(-c3ccccc3)nc3ccccc23)CC1.Cl.Cl (stereo not drawn) [XIX-3, 2-phenyl-4-{1-[4-(N,N-diethylamino)piperidin-1-yl]-eth-1-yl}quinoline dihydrochloride] | 20 to 40 | 20 to 40 | 9 | 14 | 11 | 9 | 6 | 6 |  | 21 | 22 | 12 | 18 |
| CCN(CC)C1CCN(C(C)c2cc(-c3ccc4ccccc4c3)nc3ccccc23)CC1.Cl.Cl (stereo not drawn) [XXIV-3, 2-(2-naphtyl)-4-{1-[4-(N,N-diethylamino)-piperidin-1-yl]-eth-1-yl}quinoline dihydrochloride] | < 20 | < 20 | 3 | 4 | 4 | 3 | 3 | 3 | 8 | 7 | 11 | 4 | 7 |
| Cc1ccc(-c2cc(N3CCC(NC(C)(C)C)CC3)c3ccccc3n2)cc1.Cl.Cl [XIII-8, 2-(4-methyl-phenyl)-4-(4-N-tert-butylamino-piperidin-1-yl)quinoline dihydrochloride] | < 20 | < 20 | 6 | 9 | 3 | 2 | 5 | 7 | 42 | 16 | 17 | 8 | 16 |
